Results: ChEMBL document CHEMBL3272250, “Quinoline derivatives as antiallergy agents. 2. Fused-ring quinaldic acids” (1977)

Species on record: Rattus norvegicus
Experiment: Ratio of cromolyn sodium ID50 to compound ID50 for inhibition of passive cutaneous anaphylaxis reaction in Sprague-Dawley rat
Type: functional
Conditions: not given

SMILES | Ratio
CCCCc1cc2c(=O)cc(C(=O)O)[nH]c2c2c(=O)cc(C(=O)O)[nH]c12 [BUFROLIN] | 500
Cc1c2c(=O)cc(C(=O)[O-])[nH]c2c(Cl)c2[nH]c(C(=O)[O-])cc(=O)c12.[Na+].[Na+] | >250
O=C(O)c1cc(=O)c2ccc3c(ccc4c(=O)cc(C(=O)O)[nH]c43)c2[nH]1 | 500

These compounds were tested on Rattus norvegicus (assay: Antiallergic activity against anti-egg albumin homocytotropic antibody injected Sprague-Dawley rat assessed as inhibition of passive cutaneous anaphylaxis reaction administered iv at the time of egg albumin antigen challenge or ip 30 mins prior to egg albumin antigen challenge). Conditions: read-out: ID50 (the source's name).
Type: functional

SMILES | ED50 [mg/kg]
COc1c2[nH]c(C(=O)O)cc(=O)c2cc2c(=O)cc(C(=O)O)[nH]c12 | 0.1
O=C(O)c1cc(=O)c2c(ccc3c(=O)cc(C(=O)O)[nH]c32)[nH]1 | 1
O=C(O)c1cc(=O)c2cc3c(=O)cc(C(=O)O)[nH]c3c(F)c2[nH]1 | 0.5
Cc1c(C(=O)[O-])[nH]c2c(C)c3[nH]c(C(=O)O)c(C)c(=O)c3cc2c1=O.[Na+] | 5
O=C([O-])c1cc(=O)c2c(OCC(O)COc3cccc4oc(C(=O)[O-])cc(=O)c34)cccc2o1.[Na+].[Na+] [CROMOLYN SODIUM] | 2.5
O=C(O)c1cc(=O)c2cc(Cl)c3c(ccc4c(=O)cc(C(=O)O)[nH]c43)c2[nH]1 | 0.05
O=C([O-])c1cc(=O)c2cc3c(=O)cc(C(=O)[O-])[nH]c3c(C(=O)O)c2[nH]1.[Na+].[Na+] | 0.1
O=C(O)c1cc(=O)c2c(ccc3[nH]c(C(=O)O)cc(=O)c32)[nH]1 | 2.5
N#Cc1c2c(=O)cc(C(=O)O)[nH]c2c(Cl)c2[nH]c(C(=O)O)cc(=O)c12 | 0.05
N#Cc1c2[nH]c(C(=O)O)cc(=O)c2cc2c(=O)cc(C(=O)O)[nH]c12 | 0.05
CCCCCc1cc2c(=O)cc(C(=O)O)[nH]c2c2c(=O)cc(C(=O)O)[nH]c12 | 0.05
O=C(O)c1cc(=O)c2c(C(F)(F)F)c3c(=O)cc(C(=O)O)[nH]c3c(Cl)c2[nH]1 | 5
O=C(O)c1cc(=O)c2c(cc(C(=O)O)c3c(=O)cc(C(=O)O)[nH]c32)[nH]1 | 10
CCCCc1cc2c(=O)cc(C(=O)O)[nH]c2c2c(=O)cc(C(=O)O)[nH]c12 [BUFROLIN] | 0.005
Cc1c(C(=O)O)[nH]c2ccc3[nH]c(C(=O)O)c(C)c(=O)c3c2c1=O | 10
O=C(O)c1ccc2ccccc2n1 [QUINALDIC ACID] | 50
O=C(O)c1cc(=O)c2c([nH]1)c1c(=O)cc(C(=O)O)[nH]c1c1c(=O)cc(C(=O)O)[nH]c21 | 0.5
Cc1c2c(=O)cc(C(=O)[O-])[nH]c2c(Cl)c2[nH]c(C(=O)[O-])cc(=O)c12.[Na+].[Na+] | 0.01
O=C(O)c1cc(=O)c2ccc3c(ccc4c(=O)cc(C(=O)O)[nH]c43)c2[nH]1 | 0.005
Cc1c2[nH]c(C(=O)[O-])cc(=O)c2cc2c(=O)cc(C(=O)[O-])[nH]c12.[Na+].[Na+] | 0.25
O=C(O)c1cc(=O)c2cc3c(=O)cc(C(=O)O)[nH]c3c(Cl)c2[nH]1 | 0.05
